Measurements: PubChem BioAssay (NCI)
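Step 1: Grow cells in 96-well plates. Step 2: Expose to compound for 48 hours at 5 concentrations. Step 3: Interpolate endpoints linearly; if unreached, use highest concentration. At the GI50, growth is halved. TGI is the concentration that stops growth completely.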

Experiments:
Test in all cases: NCI-60 cell line screen, 48 h
SNB-75 CNS = system: SNB-75 CNS
OVCAR-3 ovarian = system: OVCAR-3 ovarian
PC-3 prostate = system: PC-3 prostate
U251 CNS = system: U251 CNS
SNB-19 CNS = system: SNB-19 CNS
NCI-H23 lung = system: NCI-H23 lung
UACC-62 melanoma = system: UACC-62 melanoma
TK-10 renal = system: TK-10 renal
OVCAR-5 ovarian = system: OVCAR-5 ovarian
CCRF-CEM leukemia = system: CCRF-CEM leukemia
DU-145 prostate = system: DU-145 prostate
SF-539 CNS = system: SF-539 CNS
CAKI-1 renal = system: CAKI-1 renal
HL-60(TB) leukemia = system: HL-60(TB) leukemia
MOLT-4 leukemia = system: MOLT-4 leukemia
HOP-92 NSCLC = system: HOP-92 NSCLC
SW-620 colon = system: SW-620 colon
MDA-MB-231 breast = system: MDA-MB-231 breast
M14 melanoma = system: M14 melanoma
SK-MEL-28 melanoma = system: SK-MEL-28 melanoma
COLO 205 colon = system: COLO 205 colon
SK-MEL-5 melanoma = system: SK-MEL-5 melanoma
HT29 colon = system: HT29 colon
OVCAR-4 ovarian = system: OVCAR-4 ovarian
MCF7 breast = system: MCF7 breast
HOP-62 NSCLC = system: HOP-62 NSCLC
MALME-3M melanoma = system: MALME-3M melanoma
MDA-MB-435 = system: MDA-MB-435
BT-549 breast = system: BT-549 breast
SF-295 CNS = system: SF-295 CNS
IGROV1 ovarian = system: IGROV1 ovarian
NCI/ADR-RES ovarian = system: NCI/ADR-RES ovarian
HCC-2998 colon = system: HCC-2998 colon
UACC-257 melanoma = system: UACC-257 melanoma
SN12C renal = system: SN12C renal
SF-268 CNS = system: SF-268 CNS
OVCAR-8 ovarian = system: OVCAR-8 ovarian
HCT-15 colon = system: HCT-15 colon
RXF 393 renal = system: RXF 393 renal
SR leukemia = system: SR leukemia
786-0 renal = system: 786-0 renal
LOX IMVI melanoma = system: LOX IMVI melanoma
NCI-H522 lung = system: NCI-H522 lung
K-562 leukemia = system: K-562 leukemia
HS 578T breast = system: HS 578T breast
T-47D breast = system: T-47D breast
EKVX NSCLC = system: EKVX NSCLC
KM12 colon = system: KM12 colon
RPMI-8226 leukemia = system: RPMI-8226 leukemia
A498 renal = system: A498 renal
NCI-H226 lung = system: NCI-H226 lung
A549 NSCLC = system: A549 NSCLC
ACHN renal = system: ACHN renal
HCT-116 colon = system: HCT-116 colon
UO-31 renal = system: UO-31 renal
NCI-H460 lung = system: NCI-H460 lung

Fc1ccc(-c2nn3c(CNc4ccccc4)nnc3s2)cc1
GI50 (SNB-75 CNS): 52.2 µM | TGI (SNB-75 CNS): > 100 µM | GI50 (OVCAR-3 ovarian): 12.2 µM | TGI (OVCAR-3 ovarian): 49.1 µM | GI50 (PC-3 prostate): 31 µM | TGI (PC-3 prostate): > 100 µM | GI50 (U251 CNS): 23.5 µM | TGI (U251 CNS): > 100 µM | GI50 (SNB-19 CNS): 33.6 µM | TGI (SNB-19 CNS): > 100 µM | GI50 (NCI-H23 lung): 27.2 µM | TGI (NCI-H23 lung): > 100 µM | GI50 (UACC-62 melanoma): 18.4 µM | TGI (UACC-62 melanoma): 53.7 µM | GI50 (TK-10 renal): 30.2 µM | TGI (TK-10 renal): > 100 µM | GI50 (OVCAR-5 ovarian): 30.2 µM | TGI (OVCAR-5 ovarian): > 100 µM | GI50 (CCRF-CEM leukemia): 36.2 µM | TGI (CCRF-CEM leukemia): > 100 µM | GI50 (DU-145 prostate): 56.6 µM | TGI (DU-145 prostate): > 100 µM | GI50 (SF-539 CNS): 33.6 µM | TGI (SF-539 CNS): > 100 µM | GI50 (CAKI-1 renal): 19.4 µM | TGI (CAKI-1 renal): 49.2 µM | GI50 (HL-60(TB) leukemia): > 100 µM | TGI (HL-60(TB) leukemia): > 100 µM | GI50 (MOLT-4 leukemia): 27 µM | TGI (MOLT-4 leukemia): > 100 µM | GI50 (HOP-92 NSCLC): 17.5 µM | TGI (HOP-92 NSCLC): > 100 µM | GI50 (SW-620 colon): 40.6 µM | TGI (SW-620 colon): > 100 µM | GI50 (MDA-MB-231 breast): 27.9 µM | TGI (MDA-MB-231 breast): > 100 µM | GI50 (M14 melanoma): 35.5 µM | TGI (M14 melanoma): > 100 µM | GI50 (SK-MEL-28 melanoma): 42.2 µM | TGI (SK-MEL-28 melanoma): > 100 µM | GI50 (COLO 205 colon): 11.2 µM | TGI (COLO 205 colon): > 100 µM | GI50 (SK-MEL-5 melanoma): 17.5 µM | TGI (SK-MEL-5 melanoma): 36.7 µM | GI50 (HT29 colon): 39.2 µM | TGI (HT29 colon): > 100 µM | GI50 (OVCAR-4 ovarian): 90.7 µM | TGI (OVCAR-4 ovarian): > 100 µM | GI50 (MCF7 breast): 60.2 µM | TGI (MCF7 breast): > 100 µM | GI50 (HOP-62 NSCLC): 33.8 µM | TGI (HOP-62 NSCLC): > 100 µM | GI50 (MALME-3M melanoma): 21.2 µM | TGI (MALME-3M melanoma): 94.6 µM | GI50 (MDA-MB-435): 18.7 µM | TGI (MDA-MB-435): 51.6 µM | GI50 (BT-549 breast): 39.1 µM | TGI (BT-549 breast): > 100 µM | GI50 (SF-295 CNS): 20.5 µM | TGI (SF-295 CNS): 59.3 µM | GI50 (IGROV1 ovarian): 49.3 µM | TGI (IGROV1 ovarian): > 100 µM | GI50 (NCI/ADR-RES ovarian): 13.6 µM | TGI (NCI/ADR-RES ovarian): 53.6 µM | GI50 (HCC-2998 colon): 0.585 µM | TGI (HCC-2998 colon): 25 µM | GI50 (UACC-257 melanoma): 36.2 µM | TGI (UACC-257 melanoma): > 100 µM | GI50 (SN12C renal): 22.7 µM | TGI (SN12C renal): 90.8 µM | GI50 (SF-268 CNS): 64.3 µM | TGI (SF-268 CNS): > 100 µM | GI50 (OVCAR-8 ovarian): 34.7 µM | TGI (OVCAR-8 ovarian): > 100 µM | GI50 (HCT-15 colon): 45 µM | TGI (HCT-15 colon): > 100 µM | GI50 (RXF 393 renal): > 100 µM | TGI (RXF 393 renal): > 100 µM | GI50 (SR leukemia): > 100 µM | TGI (SR leukemia): > 100 µM | GI50 (786-0 renal): 56.2 µM | TGI (786-0 renal): > 100 µM | GI50 (LOX IMVI melanoma): 29.4 µM | TGI (LOX IMVI melanoma): 96.7 µM | GI50 (NCI-H522 lung): 34.5 µM | TGI (NCI-H522 lung): > 100 µM | GI50 (K-562 leukemia): 41.6 µM | TGI (K-562 leukemia): > 100 µM | GI50 (HS 578T breast): 49.7 µM | TGI (HS 578T breast): > 100 µM | GI50 (T-47D breast): 29.6 µM | TGI (T-47D breast): > 100 µM | GI50 (EKVX NSCLC): 27.8 µM | TGI (EKVX NSCLC): > 100 µM | GI50 (KM12 colon): 14.9 µM | TGI (KM12 colon): > 100 µM | GI50 (RPMI-8226 leukemia): 6.99 µM | TGI (RPMI-8226 leukemia): > 100 µM | GI50 (A498 renal): 37 µM | TGI (A498 renal): > 100 µM | GI50 (NCI-H226 lung): 45.5 µM | TGI (NCI-H226 lung): > 100 µM | GI50 (A549 NSCLC): 36.7 µM | TGI (A549 NSCLC): > 100 µM | GI50 (ACHN renal): 66.8 µM | TGI (ACHN renal): > 100 µM | GI50 (HCT-116 colon): 26.5 µM | TGI (HCT-116 colon): > 100 µM | GI50 (UO-31 renal): 42.8 µM | TGI (UO-31 renal): > 100 µM | GI50 (NCI-H460 lung): 52.3 µM | TGI (NCI-H460 lung): > 100 µM
